Laboratory results: patent publication US10857136B2, “Compounds for use in the prevention and/or treatment of non-alcoholic fat liver disease and non-alcoholic steatohepatitis” (SJT MOLECULAR RESEARCH, SL, priority 2017, dated 2020)

Columns and labels:
Format in all cases: in vivo
[1] = test system: DIO-NASH mice (C57Bl/6J male mice); assay: Liver toxicity: plasma ALT and AST, 8 weeks assay in DIO-NASH mice; settings: 50 mg/kg, p.o., b.i.d., end of treatment, vs DIO-NASH vehicle
Procedure: The assay was carried out to evaluate the effect of the compounds of the invention on liver toxicity for animals with non-alcoholic fat liver disease (DIO-NASH mice). For this assay, the effect of compound 4a in plasma Alanine Aminotransferase (ALT) and in plasma Aspartate Aminotransferase (AST) was evaluated. DIO-NASH mice (C57Bl/6J male mice) were treated with a hydrochloride salt of compound 4a during 8 weeks (50 mg/kg, p.o., b.i.d.), versus a pathological control of DIO-NASH mice and a non-pathological control LEAN-CHOW mice, both treated with the vehicle (0.9% NaCl). The animals were kept under the same conditions were used as in example 2.2. The DIO-NASH mice group were put on high fat diet (40% AMLN diet, D09100301 Research Diets, USA) and a control group (LEAN-CHOW) was put on a regular chow diet (Altromin 1324, Brogaarden, Denmark) for 35 weeks prior to the study.
To evaluate Alanine transaminase (ALT) and Aspartate transaminase (AST), blood samples were collected in heparinized tubes and plasma was separated and stored at −80° C. until analysis. ALT and AST were measured using commercial kits (Roche Diagnostics, Germany) on the Cobas™ C-501 autoanalyzer according to the manufacturer's instructions.

[2] = test system: DIO-NASH mice (C57Bl/6J male mice); assay: Liver fibrosis: collagen type I (col1a1) IHC staining in DIO-NASH mice; settings: 50 mg/kg, p.o., b.i.d., 8 weeks
Procedure: (§1) To assess the effect of the compounds of the invention in fibrosis of liver in the treatment of non-alcoholic fat liver disease, the collagen type I (a fibrosis marker) in liver was measured after the 8 weeks of the study where DIO-NASH mice (C57Bl/6J male mice) were treated with a hydrochloride salt of compound 4a during 8 weeks (50 mg/kg, p.o., b.i.d.), versus a pathological control of DIO-NASH mice and a non-pathological control LEAN-CHOW mice, both treated with the vehicle (0.9% NaCl).
Type I collagen content was measured by IHC staining: Type I collagen (Southern Biotech, Cat. 1310-01) IHC was performed using standard procedures. Briefly, after antigen retrieval and blocking of endogenous peroxidase activity, liver slides were incubated with primary antibody. The primary antibody was detected using biotinylated secondary antibody and amplified using a vectastain-TSA-vectastain method a polymeric HRP-linker antibody conjugate. Next, the primary antibody was visualized with DAB as chromogen. Finally, sections were counterstained in hematoxylin and cover-slipped.

[3] = test system: DIO-NASH mice (C57Bl/6J male mice); assay: Liver weight, 8 weeks assay in DIO-NASH mice; settings: 50 mg/kg, p.o., b.i.d., vs DIO-NASH vehicle
Procedure: The animals were kept and examined under the same conditions were used as in example 2.2. The liver biopsies were also carried out under the same conditions as in example 2.2.
To assess the effect of compound 4a on liver weight of mice with non-alcoholic fat liver disease, DIO-NASH mice (C57Bl/6J male mice) were treated with a hydrochloride salt of compound 4a during 8 weeks (50 mg/kg, p.o., b.i.d.), versus a pathological control of DIO-NASH mice and a non-pathological control LEAN-CHOW mice, both treated with the vehicle (0.9% NaCl). The DIO-NASH mice group were put on high fat diet (40% AMLN diet, D09100301 Research Diets, USA) and a control group (LEAN-CHOW) was put on a regular chow diet (Altromin 1324, Brogaarden, Denmark) for 35 weeks prior to the study.

[4] = test system: DIO-NASH mice (C57Bl/6J male mice); assay: Liver inflammation: galectin-3 IHC staining in DIO-NASH mice; settings: 50 mg/kg, p.o., b.i.d., 8 weeks
Procedure: as §1, with “in inflammation” for “in fibrosis”, “disease, liver galactin-3 (inflammation” for “disease, the collagen type I (a fibrosis”, “marker) levels were determined” for “marker) in liver was measured”, “after a” for “after the”, “weeks” for “weeks of the”
Galectin-3 was measured via galtactin-3 IHC staining: galectin-3 (Biolegend, Cat. #125402) IHC were performed using standard procedures. Briefly, after antigen retrieval and blocking of endogenous peroxidase activity, slides were incubated with primary antibody. The primary antibody was detected using a linker secondary antibody followed by amplification using a polymeric HRP-linker antibody conjugate. Next, the primary antibody was visualized with DAB as chromogen. Finally, sections were counterstained in hematoxylin and cover-slipped.

[5] = test system: DIO mice (C57Bl/6J male mice); assay: Insulin resistance (HOMA-IR), 36 days assay in DIO mice; settings: 50 mg/kg orally twice daily for 36 days, days 1, 8, 15, 22, 29 and 36, vs saline control, similar to metformin 150 mg/kg
Procedure: To assess the performance of the compounds disclosed in decreasing insulin resistance, DIO mice (C57Bl/6J male mice) were treated with hydrochloride salts of compounds 4a, 5a; and with compound 7a during 36 days, versus a control treated with saline (0.9% NaCl) and versus DIO mice treated with metformin as a positive control.
For the assessment, 60 C57Bl/6 J male mice (16-week-old at delivery and 40 g of average weight), obtained from Charles River France put on high fat diet for 10 weeks. The animals were housed in ventilated and enriched housing cages (310×125×127 mm^3) throughout the experimental phase. Animals' cages litters were changed at least once a week. Mice were housed in groups of 10 mice on a normal 12 hours light cycle (at 08:00 pm lights were switched off), at 22±2° C. and 50±10% relative humidity. After reception, mice were maintained for three additional acclimation weeks. During the whole test (acclimation+treatment phase) a high fat diet (D12492 purchased from Research Diet Inc.; 60% fat) and tap water were provided ad libitum.
After the acclimation period, mice were fasted for 6 hours and blood glucose and plasma insulin were measured. Ten animals, those with lower blood glucose/plasma insulin, were discarded from the study. […]
Body weight were weekly measured as well as blood glucose and plasma insulin after a 6 hour-fasting.
Blood glucose was measured by sampling blood from the tip of the tail: a drop of blood is collected and placed on a glucometer strip (Accu-Check® glucometer, Roche, Switzerland). Plasma insulin was detected via ELISA (Elisa Kit, Eurobio, France) using 5 μl samples.
The Homeostatic model assessment-insulin resistance index (HOMA-IR), which is used to quantify insulin resistance, was calculated from fasting blood glucose, and plasma insulin values as follows: HOMA-IR=(mM glucose×μU/mL insulin)/22.5, being this constant a normalizing factor (Matthews et al., 1985, Diabetologia 28(7), 412-9).

COc1ccc(-c2nc(C(=O)NCCN)cc3c2[nH]c2ccccc23)cc1 [Compound 4a, N(-ethylamine)-1-benzosubstituted-β-carboline-3-carboxamide]
plasma ALT [1]: reduced the plasma ALT levels | plasma AST [1]: reduced the plasma AST levels | anti-type I collagen (col1a1) staining, representative images of liver samples ([2]; end of study): visible change in this fibrosis marker | total content of liver collagen type 1 (col1a1) determined by morphometry ([2]; vs DIO-NASH vehicle): reduced total liver col1a1 | total liver weight [3]: reduced liver weight | anti-galectin-3 staining, representative images of liver samples ([4]; end of study): visible change in this inflammation marker | total liver galectin-3 content determined by morphometry ([4]; vs DIO-NASH vehicle): reduced total galectin-3 content | insulin resistance (HOMA-IR) [5]: lower insulin resistance compared to the control animals
